These results are taken from patent US4287201A, “Anovulatory method and chicken feed compositions” (Merck & Co., Inc., priority 1980, dated 1981).

Assay [1] concerns laying hens. The assay is described as follows: Antigonadal Activity (ED20): ovarian weight of prime laying hens fed medicated diet for one week. Format: in vivo, laying hens (chicken). Conditions: medicated diet for seven days, based on at least 8 hens at 2 dose levels. As for the experimental part: Antigonadal Activity--(ED20)
Prime laying hens (7-12 months), whose egg production has been documented during the preceding 2 weeks, are fed medicated diet for one week at various dose levels. At the conclusion of the one week test, the hens are sacrificed and their reproductive system is excised, examined and weighed. The seven day medication level producing a 20 g ovarian weight, based on at least 8 hens at 2 dose levels is calculated and recorded as ED20.
*Seven day medication level producing a 20 g ovarian weight in laying hen
(based on at least 8 hens at 2 dose levels)

Assay [2] concerns laying hens. The assay is described as follows: Anovulatory Activity (EPI): egg production of prime laying hens fed medicated diet. Format: in vivo, laying hens (chicken). The settings on record: Gallus gallus, 192 h, read-out: EPI: Egg Production Index, % of control egg production for days 5 through 8. How it is done: Anovulatory Activity--(EPI)
Prime laying hens (7-12 months), whose egg production has been documented during the preceding 2 weeks, are fed diet containing medication at 100 ppm for 8 days. Egg production is recorded for days 5 through 8 while the birds are on test, and the Egg Production Index (EPI) is calculated as the % of control egg production for days 5 through 8 inclusive after start of oral medication at 100 ppm.
**Egg Production Index, % of control egg production for days 5 through 8
inclusive after start of oral medication at 100 ppm

SMILES strings stand for the structures. Read-outs that look alike come from different tables or passages of the source.

In the case of `Cc1cccc(C)c1N=C1NCCN1` [compound 1, 2-(2,6-dimethylphenylimino)imidazolidine], in the assay on laying hens [1], the “ED20: seven day medication level producing a 20 g ovarian weight in laying hen” value (shortened to “ED20 … in laying hen”) is listed as 38 ppm. Besides, the response vs control in vivo at 100 ppm, 100 µg/mL with laying hens [2] (po) was determined as 18%.
As for `Cc1cc(C)c(N=C2NCCN2)c(C)c1` [compound 6, 2-(2,4,6-Trimethylphenylimino)imidazolidine], the “ED20 … in laying hen” value with laying hens [1] is given as 54 ppm. For the same molecule, the response vs control in vivo at 100 ppm, 100 µg/mL in the assay with laying hens [2] (po) is 31%.
For `Cc1ccccc1N=C1NCCN1` [compound 9], in that order: 69 ppm and 8%.
As to `Cc1ccc(C)c(N=C2NCCN2)c1` [compound 14], in the assay on laying hens [1], the “ED20 … in laying hen” value is recorded as 250 ppm. Moreover, in the assay with laying hens [2] (po), the response vs control in vivo at 100 ppm, 100 µg/mL stood at 70%.
For `Cc1ccc(F)cc1N=C1NCCN1` [compound 8, 2-(5-fluoro-2-methylphenylimino)imidazolidine], in that order: 67 ppm and 24%.
For `Clc1ccccc1N=C1NCCN1` [compound 13, 2-(2-chlorophenylimino)imidazolidine], in that order: 217 ppm and 31%.
For `Cc1ccc(N=C2NCCN2)c(C)c1` [compound 4], in the assay on laying hens [1], the “ED20 … in laying hen” value turned out to be 50 ppm. For the same molecule, the response vs control in vivo at 100 ppm, 100 µg/mL in the assay with laying hens [2] (po) stood at 24%.
With `Cc1c(Cl)cccc1N=C1NCCN1` [compound 2, 2-(3-chloro-2-methylphenylimino)imidazolidine], the “ED20 … in laying hen” value in the assay on laying hens [1] turned out to be 38 ppm. In addition, in the assay on laying hens [2] (po), the response vs control in vivo at 100 ppm, 100 µg/mL was found to be 26%.
Turning to `Clc1cccc(Cl)c1N=C1NCCN1` [compound 15], in the assay on laying hens [1], the “ED20 … in laying hen” value was determined as 400 ppm. Further, in the assay on laying hens [2] (hens, oral medication in diet at 100 ppm for 8 days, days 5 through 8 inclusive), the response vs control in vivo at 100 ppm, 100 µg/mL came out at 70%.
`CCc1ccccc1N=C1NCCN1` [compound 10]: the “ED20 … in laying hen” value in the assay on laying hens [1] worked out at 83 ppm. Further, the response vs control in vivo at 100 ppm, 100 µg/mL in the assay with laying hens [2] (po) came out at 31%.
Take `Cc1cccc(Cl)c1N=C1NCCN1` [compound 3, 2-(6-chloro-2-methylphenylimino)imidazolidine]: the “ED20 … in laying hen” value with laying hens [1] is on record as 40 ppm. Moreover, in the assay with laying hens [2] (po), the response vs control in vivo at 100 ppm, 100 µg/mL turned out to be 16%.
Regarding `Cc1cc(Br)ccc1N=C1NCCN1` [compound 7], the “ED20 … in laying hen” value in the assay with laying hens [1] is 56 ppm. Moreover, the response vs control in vivo at 100 ppm, 100 µg/mL in the assay with laying hens [2] (po) amounted to 24%.
For `CCc1cccc(CC)c1N=C1NCCN1` [compound 11], in that order: 151 ppm and 31%.
For `Cc1cccc(N=C2NCCN2)c1C` [compound 12], in that order: 181 ppm and 86%.
For `Cc1cc(Cl)ccc1N=C1NCCN1` [compound 5, 2-(4-chloro-2-methylphenylimino)imidazolidine], in that order: 53 ppm and 24%.
